According to US20250034201A1, “PRODRUGS OF GANAXOLONE” (priority 2022, published 2025):
Values after ≈ are worked out from the molar mass of the structure shown. Read-outs that look alike come from different tables or passages of the source.

Experiments:
[1] = Dog liver microsomal stability; assay type: in vitro ADME; details: for microsomal CLint / half-life: dog liver microsomes 0.5 mg/mL, compound 0.5 μM; for microsomal CLint: read-out: Dog Liver Microsomal Stability CLint (uL/min/mg liver); for half-life: read-out: Dog Liver Microsomal Stability t1/2; for Dog Liver Microsomal Stability no NADPH, % remain 1 h: dog liver microsomes
Protocol: (§1) For several compounds only human liver microsomal stability was tested. […] The microsomal assays were carried out with and without the addition of NADPH at a final concentration of 1 mM. For negative control samples, NADPH reagent was not added. […] Note that compounds undergo only Phase I metabolism in liver microsomes.
(§2) CLint=the intrinsic hepatic clearance (uL/min/mg), where CLint is equal to 0.693/(t1/2×Cmp)
Certain compounds were also tested in mice and dog liver microsome assays according to the protocol outlined above. […].

[2] = Measured solubility in buffer, LC-MS/MS; assay type: physicochemical; details: aqueous buffer, thermodynamic from solid
Protocol: […] The mixture was vortexed and a magnetic stirring bar was subsequently added to the vial. The vial was placed on a magnetic stirrer with constant stirring for 16-24 hours at room temperature. The pH of the top layer solution was measured. Subsequently, 200 μL of the top layer solution was placed in a 1.5 mL microcentrifuge tube and centrifuged at 18,000 g for 10 min at room temperature. A 10 μL aliquot of supernatant was added to 990 μL of methanol:water (1/:1, v/v) and vortexed. Then, one volume of acetonitrile containing internal standard was added to one volume of the above 100-fold diluted solution and the resulting solution was vortexed and placed in 96-well plate for LC-MS/MS analysis. […] LC-MS-MS analysis was performed utilizing multiple reaction monitoring for detection of characteristic ions for each test compound, additional related analytes and internal standard.

in vitro [3] = assay type: in vitro ADME, human; details: compound 0.5 μM; for half-life / microsomal CLint: human liver microsomes 0.5 mg/mL, with NADPH; for half-life: 37° C., read-out: Human Liver Microsomal Stability t1/2; for microsomal CLint: read-out: Human Liver Microsomal Stability CLint (uL/min/mg liver) (converted); for Human Liver Microsomal Stability no NADPH, % remain 1 h: human liver microsomes
Protocol: as §1

[4] = Stability in simulated gastric fluid (SGF); assay type: in vitro ADME; details: SGF with pepsin pH 1.2, 37° C.; for half-life: simulated gi fluid, 2 μg/mL, read-out: SGF t1/2
Protocol: (§3) The stability of exemplary compounds in simulated gastric fluid (SGF) and simulated intestinal fluid (SIF) was tested according to the following protocol.

[5] = Rat liver microsomal stability; assay type: in vitro ADME; details: for half-life / microsomal CLint: rat liver microsomes 0.5 mg/mL, with NADPH; for half-life / microsomal CLint / Rat Liver Microsomal Stability no NADPH, % remain 1 h: compound 0.5 μM; for half-life: 37° C., read-out: Rat Liver Microsomal Stability t1/2; for microsomal CLint: read-out: Rat Liver Microsomal Stability CLint (uL/min/mg liver); for Rat Liver Microsomal Stability no NADPH, % remain 1 h / Comments: production of GNX (ganaxolone) in rat liver microsomes: rat liver microsomes
Protocol: as §1, §2

[6] = Stability in simulated intestinal fluid (SIF); assay type: in vitro ADME; details: SIF with pancreatin pH 6.8, 37° C.; for half-life: simulated gi fluid, 2 μg/mL, read-out: SIF t1/2
Protocol: as §3

in vitro [7] = details: for Human plasma t90 / Rat plasma t90: 2 μg/mL, 37° C.; for half-life / Observations: stability / GNX production in rat plasma / Observations: stability / GNX production in human plasma: plasma
Protocol: The plasma stability of exemplary compounds was tested using rat, mice, dog, and human plasma, according to the following protocol. For each test compound, samples at a final concentration of 2 μg/mL were prepared in blank plasma of selected species. All samples were incubated at 37° C. on a 150-RPM orbital shaker, and an aliquot was removed at pre-determined time points (0, 15, 30, 60, and 120 minutes). Samples were precipitated with three volumes of acetonitrile containing propranolol as internal standard, and centrifuged for 10 min at 2000 g before LC/MS/MS analysis of the supernatant solutions.

Dog plasma stability = assay type: in vitro ADME; details: dog plasma; for Dog plasma t90 / half-life: 2 μg/mL, 37° C.; for half-life: read-out: Dog plasma Half life (t1/2)
[8] = Pharmacokinetic study with Compound 218 (IV 5 mg/kg, PO 25 mg/kg); assay type: in vivo; details: dog, plasma, fasted male beagle dogs; for AUC(0-t): read-out: Compound 218 PK AUClast; for MRT inf: read-out: Compound 218 PK MRTInf; for half-life: read-out: Compound 218 PK t1/2 (converted); for Vd: male, beagle, 5 mg/kg
Protocol: […]; n=3) and oral (PO) administration (25 mg/kg; n=3) in fasted male beagle dogs.

[9] = pH 7.4, 50 mM phosphate buffer, 16-24 hours, room temperature, read-out: Solubility pH 7.4
[10] = buffer, pH 2.0, room temperature, read-out: Solubility pH 2.0
[11] = analyte Compound 218, IV 5 mg/kg Compound 218, mean
[12] = analyte Compound 218, oral 25 mg/kg Compound 218, mean

In the case of CC(=O)OCCN(CCOC(C)=O)CC(=O)OC(C)(C)C(=O)OCC(=O)O[C@]1(C)CC[C@@]2(C)[C@@H](CC[C@@H]3[C@@H]2CC[C@]2(C)[C@@H](C(C)=O)CC[C@@H]32)C1 [Compound 229], the microsomal CLint [1] is reported as 224 µL/min/mg, the half-life [1] is reported as 0.103 h and the “Dog Liver Microsomal Stability no NADPH, % remain 1 h” value [1] is reported as 1%. It also gave a solubility [2, 9] of 11 µg/mL (≈ 15.6 µM), a solubility [2, 10] of 22 µg/mL (≈ 31.2 µM) and a half-life (in vitro [3]) of 0.102 h. For the same molecule, the microsomal CLint (in vitro [3]) was 227 µL/min/mg and the “Human Liver Microsomal Stability no NADPH, % remain 1 h” value (in vitro [3]) was 1%.
For CC(=O)[C@H]1CC[C@H]2[C@@H]3CC[C@H]4C[C@](C)(OC(=O)COC(=O)CN5CCOCC5)CC[C@]4(C)[C@H]3CC[C@]12C [Compound 200], the “SGF (% remain, 60 min)” value [4] was 99.0%, the solubility [2, 9] was 29 µg/mL (≈ 56 µM) and the solubility [2, 10] was 11800 µg/mL (≈ 22800 µM). The half-life [5] was 0.202 h, the microsomal CLint [5] was 115 µL/min/mg and the “Rat Liver Microsomal Stability no NADPH, % remain 1 h” value [5] was 7.5%. The “SIF (% remain, 60 min)” value [6] was 31%, the “Human plasma t90” value (in vitro [7]) was 2.19 min and the half-life (in vitro [7]; human) was 0.243 h. For the same molecule, the “Rat plasma t90” value (in vitro [7]) was 1.4 min, the “Observations: stability / GNX production in rat plasma” value (in vitro [7]; rat) was “In rat, compound converted” and the half-life (in vitro [7]; rat) was 0.158 h. The half-life (in vitro [3]) was 0.1 h, the microsomal CLint (in vitro [3]) was 229 µL/min/mg and the “Human Liver Microsomal Stability no NADPH, % remain 1 h” value (in vitro [3]) was 1%.
For CC(=O)[C@H]1CC[C@H]2[C@@H]3CC[C@H]4C[C@](C)(OC(=O)COC(=O)C(C)(C)N)CC[C@]4(C)[C@H]3CC[C@]12C [Compound 218], the microsomal CLint [1] was 69 µL/min/mg, the half-life [1] was 0.335 h and the “Dog Liver Microsomal Stability no NADPH, % remain 1 h” value [1] was 44.4%. For the same molecule, the “SGF (% remain, 60 min)” value [4] was 97%, the half-life [4] was 35 h and the solubility [2, 9] was 152 µg/mL (≈ 320 µM). The solubility [2, 10] was 16900 µg/mL (≈ 35500 µM), the “Comments: production of GNX (ganaxolone) in rat liver microsomes” value [5] was “In rat no GNX produced;” and the half-life [5] was 0.94 h. For the same molecule, the microsomal CLint [5] was 26 µL/min/mg, the “Rat Liver Microsomal Stability no NADPH, % remain 1 h” value [5] was 83% and the “SIF (% remain, 60 min)” value [6] was 95%. For the same molecule, the half-life [6] was 22.7 h, the “Observations: stability / GNX production in dog plasma” value (Dog plasma stability) was “No GNX produced” and the “Dog plasma t90” value (Dog plasma stability) was 783 min. For the same molecule, the half-life (Dog plasma stability) was 86.6 h, the AUC(0-inf) ([8]; analyte Compound 218, IV 5 mg/kg Compound 218, mean, read-out: Compound 218 PK AUCinf) was 2200 ng·h/mL and the AUC(0-t) [8, 11] was 2130 ng·h/mL. It also gave a C0 ([8]; analyte Compound 218, IV 5 mg/kg Compound 218, mean, read-out: Compound 218 PK C0) of 2750 ng/mL, a clearance ([8]; analyte Compound 218, IV 5 mg/kg Compound 218, mean, read-out: Compound 218 PK CL) of 37.9 mL/min/kg and an MRT inf [8, 11] of 5.03 h. The half-life [8, 11] was 17.7 h, the AUC(0-inf) ([8]; analyte Compound 218, oral 25 mg/kg Compound 218, mean, read-out: Compound 218 PK AUCInf) was 415 ng·h/mL and the AUC(0-t) [8, 12] was 359 ng·h/mL. For the same molecule, the Cmax ([8]; analyte Compound 218, oral 25 mg/kg Compound 218, mean, read-out: Compound 218 PK Cmax) was 89.8 ng/mL, the MRT inf [8, 12] was 6.38 h and the Tmax ([8]; analyte Compound 218, oral 25 mg/kg Compound 218, mean, read-out: Compound 218 PK Tmax) was 1.17 h. The half-life [8, 12] was 6.13 h, the bioavailability ([8]; analyte Compound 218, oral 25 mg/kg vs IV 5 mg/kg Compound 218, mean, read-out: Compound 218 PK F (%)) was 3.76% and the Vd ([8]; intravenous, Compound 218 administered, read-out: volume of distribution (Vd) (dose/Co)) was 1.82 L/kg. The Vd ([8]; iv, analyte Compound 218, IV 5 mg/kg Compound 218, mean, read-out: Compound 218 PK Vss) was 11.4 L/kg, the Vd ([8]; iv, analyte Compound 218, IV 5 mg/kg Compound 218, mean, read-out: Compound 218 PK Vz) was 57.5 L/kg and the “Human plasma t90” value (in vitro [7]) was 8.6 min. For the same molecule, the “Observations: stability / GNX production in human plasma” value (in vitro [7]; human) was “No GNX produced”, the half-life (in vitro [7]; human) was 0.948 h and the “Rat plasma t90” value (in vitro [7]) was 8.5 min. For the same molecule, the “Observations: stability / GNX production in rat plasma” value (in vitro [7]; rat) was “GNX produced in rat”, the half-life (in vitro [7]; rat) was 0.938 h and the half-life (in vitro [3]) was 0.24 h. For the same molecule, the microsomal CLint (in vitro [3]) was 95.3 µL/min/mg and the “Human Liver Microsomal Stability no NADPH, % remain 1 h” value (in vitro [3]) was 10.0%.
For CC(=O)[C@H]1CC[C@H]2[C@@H]3CC[C@H]4C[C@](C)(O)CC[C@]4(C)[C@H]3CC[C@]12C [ganaxolone, Ganaxolone], the microsomal CLint [1] was 27.8 µL/min/mg, the half-life [1] was 0.83 h and the “Dog Liver Microsomal Stability no NADPH, % remain 1 h” value [1] was 43.6%. For the same molecule, the “SGF (% remain, 60 min)” value [4] was 95.6%, the solubility [2, 9] was 4 µg/mL (≈ 12 µM) and the solubility [2, 10] was 2 µg/mL (≈ 6.01 µM). For the same molecule, the half-life [5] was 0.2 h, the microsomal CLint [5] was 116 µL/min/mg and the “Rat Liver Microsomal Stability no NADPH, % remain 1 h” value [5] was 98.0%. The “SIF (% remain, 60 min)” value [6] was 94.6%, the “Dog plasma t90” value (Dog plasma stability) was 564 min and the half-life (Dog plasma stability) was 62.4 h. For the same molecule, the “Human plasma t90” value (in vitro [7]) was 211.0 min, the half-life (in vitro [7]; human) was 23.4 h and the “Rat plasma t90” value (in vitro [7]) was 94.2 min. The half-life (in vitro [7]; rat) was 10.4 h, the half-life (in vitro [3]) was 0.21 h and the microsomal CLint (in vitro [3]) was 110 µL/min/mg. For the same molecule, the “Human Liver Microsomal Stability no NADPH, % remain 1 h” value (in vitro [3]) was 99.0%.
In the case of CC(=O)[C@H]1CC[C@H]2[C@@H]3CC[C@H]4C[C@](C)(OC(=O)CNC(C)(C)C(=O)O)CC[C@]4(C)[C@H]3CC[C@]12C [Compound 120], the microsomal CLint [1] is reported as 17 µL/min/mg, the half-life [1] is reported as 1.35 h and the “Dog Liver Microsomal Stability no NADPH, % remain 1 h” value [1] is reported as 83%. For the same molecule, the “SGF (% remain, 60 min)” value [4] was 83%, the half-life [4] was 4.17 h and the solubility [2, 9] was 35 µg/mL (≈ 73.6 µM). The solubility [2, 10] was 39 µg/mL (≈ 82 µM), the “Comments: production of GNX (ganaxolone) in rat liver microsomes” value [5] was “In rat no GNX produced;” and the half-life [5] was 0.6 h. The microsomal CLint [5] was 38 µL/min/mg, the “Rat Liver Microsomal Stability no NADPH, % remain 1 h” value [5] was 72% and the “SIF (% remain, 60 min)” value [6] was 74%. For the same molecule, the half-life [6] was 3.32 h, the “Observations: stability / GNX production in dog plasma” value (Dog plasma stability) was “No GNX produced in rat,” and the “Dog plasma t90” value (Dog plasma stability) was 88 min. For the same molecule, the half-life (Dog plasma stability) was 9.72 h, the “Human plasma t90” value (in vitro [7]) was 218 min and the “Observations: stability / GNX production in human plasma” value (in vitro [7]; human) was “No GNX produced in rat,”. For the same molecule, the half-life (in vitro [7]; human) was 24.8 h, the “Rat plasma t90” value (in vitro [7]) was 78 min and the “Observations: stability / GNX production in rat plasma” value (in vitro [7]; rat) was “No GNX produced in rat,”. For the same molecule, the half-life (in vitro [7]; rat) was 8.67 h, the half-life (in vitro [3]) was 0.267 h and the microsomal CLint (in vitro [3]) was 86 µL/min/mg. For the same molecule, the “Human Liver Microsomal Stability no NADPH, % remain 1 h” value (in vitro [3]) was 8%.
